The source of these data is patent US8748621B2, “1,3-disubstituted 4-(aryl-X-phenyl)-1H-pyridin-2-ones” (Janssen Pharmaceuticals, Inc., priority 2007, dated 2014).

Series [1] concerns the target T1, human mGluR2 receptor (Homo sapiens, UniProt Q14416).
T1 construct: expressed in transfected cells; host or cells: CHO cells (membrane preparation)
The experiment in a line: [35S]GTPγS binding assay (GTPγS-PAM), membranes from CHO cells transfected with human mGluR2, glutamate at EC25. The format is biochemical. Conditions: positive allosteric modulation in presence of glutamate at EC25 concentration; averages of duplicate values of 11-concentration response curves; error about 0.3 log-units; read-out: GTPgS - hR2 PAM pEC50 (converted). From the text:
The compounds provided in the present invention are positive allosteric modulators of mGluR2. These compounds appear to potentiate glutamate responses by binding to an allosteric site other than the glutamate binding site. The response of mGluR2 to a concentration of glutamate is increased when compounds of Formula (I) are present. Compounds of Formula (I) are expected to have their effect substantially at mGluR2 by virtue of their ability to enhance the function of the receptor. The behaviour of positive allosteric modulators tested at mGluR2 using the [^35S]GTPγS binding assay method described below and which is suitable for the identification of such compounds, and more particularly the compounds according to Formula (I), are shown in Table 4.
The [^35S]GTPγS binding assay is a functional membrane-based assay used to study G-protein coupled receptor (GPCR) function whereby incorporation of a non-hydrolysable form of GTP, [^35S]GTPγS (guanosine 5′-triphosphate, labelled with […] ^35S), is measured. The G-protein α subunit catalyzes the exchange of guanosine 5′-diphosphate (GDP) by guanosine triphosphate (GTP) and on activation of the GPCR by an agonist, [^35S]GTPγS, becomes incorporated and cannot be cleaved to continue the exchange cycle (Harper (1998) Current Protocols in Pharmacology 2.6.1-10, John Wiley & Sons, Inc.). […] Here we describe the use of the [^35S]GTPγS binding assay using membranes from cells transfected with the human mGluR2 receptor and adapted from Schaffhauser et al ((2003) Molecular Pharmacology 4:798-810) for the detection of the positive allosteric modulation (PAM) properties of the compounds of this invention.
Cho-cells were cultured to pre-confluence and stimulated with 5 mm butyrate for 24 hours, prior to washing in PBS, and then collection by scraping in homogenisation buffer (50 mM Tris-HCl buffer, pH 7.4, 4° C.). Cell lysates were homogenized briefly (15 s) using an ultra-turrax homogenizer. The homogenate was centrifuged at 23 500×g for 10 minutes and the supernatant discarded. The pellet was resuspended in 5 mM Tris-HCl, pH 7.4 and centrifuged again (30 000×g, 20 min, 4° C.). The final pellet was resuspended in 50 mM HEPES, pH 7.4 and stored at −80° C. in appropriate aliquots before use. Protein concentration was determined by the Bradford method (Bio-Rad, USA) with bovine serum albumin as standard.
Measurement of mGluR2 positive allosteric modulatory activity of test compounds in membranes containing human mGluR2 was performed using frozen membranes that were thawed and briefly homogenised prior to pre-incubation in 96-well microplates (15 μg/assay well, 30 minutes, 30° C.) in assay buffer (50 mM HEPES pH 7.4, 100 mM NaCl, 3 mM MgCl2, 50 μM GDP, 10 μg/ml saponin,) with increasing concentrations of positive allosteric modulator (from 0.3 nM to 50 μM) and either a minimal pre-determined concentration of glutamate (PAM assay), or no added glutamate. For the PAM assay, membranes were pre-incubated with glutamate at EC25 concentration, i.e. a concentration that gives 25% of the maximal response glutamate, and is in accordance to published data (Pin et al. (1999) Eur. J. Pharmacol. 375:277˜294). After addition of [^35S]GTPγS (0.1 nM, f.c.) to achieve a total reaction volume of 200 μl, microplates were shaken briefly and further incubated to allow [^35S]GTPγS incorporation on activation (30 minutes, 30° C.). The reaction was stopped by rapid vacuum filtration over glass-fibre filter plates (Unifilter 96-well GF/B filter plates, Perkin-Elmer, Downers Grove, USA) microplate using a 96-well plate cell harvester (Filtermate, Perkin-Elmer, USA), and then by washing three times with 300 μl of ice-cold wash buffer (Na2PO4.2H20 10 mM, NaH2PO4.H20 10 mM, pH=7.4). Filters were then air-dried, and 40 μl of liquid scintillation cocktail (Microscint-O) was added to each well, and membrane-bound [^35S]GTPγS was measured in a 96-well scintillation plate reader (Top-Count, Perkin-Elmer, USA). […]
In general terms: Binding of GTPγS marks nucleotide exchange on a G protein.

T1 sequence (Q14416 19-872): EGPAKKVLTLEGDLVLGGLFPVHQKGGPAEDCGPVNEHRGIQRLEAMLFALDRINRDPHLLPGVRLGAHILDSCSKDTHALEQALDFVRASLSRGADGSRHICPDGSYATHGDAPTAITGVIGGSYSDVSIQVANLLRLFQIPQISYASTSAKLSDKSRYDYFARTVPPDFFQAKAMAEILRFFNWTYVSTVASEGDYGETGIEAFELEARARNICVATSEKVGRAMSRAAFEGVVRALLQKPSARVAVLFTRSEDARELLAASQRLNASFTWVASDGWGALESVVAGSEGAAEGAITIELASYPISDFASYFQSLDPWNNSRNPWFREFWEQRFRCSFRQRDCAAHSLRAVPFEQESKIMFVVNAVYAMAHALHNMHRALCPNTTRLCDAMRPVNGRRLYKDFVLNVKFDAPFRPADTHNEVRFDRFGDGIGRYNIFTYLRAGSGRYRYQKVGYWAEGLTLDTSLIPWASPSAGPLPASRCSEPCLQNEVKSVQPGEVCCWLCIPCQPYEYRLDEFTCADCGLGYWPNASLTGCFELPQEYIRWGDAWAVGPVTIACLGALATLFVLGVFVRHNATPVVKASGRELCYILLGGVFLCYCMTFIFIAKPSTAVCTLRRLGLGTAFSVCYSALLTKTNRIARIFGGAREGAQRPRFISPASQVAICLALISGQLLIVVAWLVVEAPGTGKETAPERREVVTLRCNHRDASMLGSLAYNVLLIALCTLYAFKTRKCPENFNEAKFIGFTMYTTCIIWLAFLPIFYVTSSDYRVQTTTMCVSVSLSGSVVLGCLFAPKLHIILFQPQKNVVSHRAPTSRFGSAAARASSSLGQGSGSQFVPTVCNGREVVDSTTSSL

For the compound `Cc1cc(Oc2ccc(-c3ccn(CC4CC4)c(=O)c3Cl)cc2Cl)ccn1` [Compound 17], the melting point (in general, the temperature of the solid-liquid transition) came to 120.8 °C. Moreover, in series [1], the EC50 is 117 nM.
As to `CCCCn1ccc(-c2ccc(Oc3cccnc3C)cc2F)c(Cl)c1=O` [Compound 29], the melting point was 108.4 °C. In addition, the EC50 in series [1] is > 10000 nM.
For `CCCCn1ccc(-c2ccc(Oc3ccnc(C)c3C)cc2F)c(Cl)c1=O` [Compound 11], the EC50 in series [1] was 67.6 nM.
For `CCCCn1ccc(-c2ccc(Oc3ccnc(C)c3)cc2)c(Cl)c1=O` [Compound 1, 1-Butyl-3-chloro-4-[4-(2-methylpyridin-4-yloxy)-phenyl]-1H-pyridin-2-one], the EC50 in series [1] is 251 nM.
Turning to `Cc1cc(Oc2ccc(-c3ccn(CC4CC4)c(=O)c3Cl)c(F)c2)ccn1` [Compound 28], the melting point turned out to be 131.8 °C. Moreover, in series [1], the EC50 was 363 nM.
`Cc1cc(Oc2ccc(-c3ccn(CC4CC4)c(=O)c3C(F)(F)F)cc2F)cc(C)n1` [Compound 5, 1-Cyclopropylmethyl-4-[4-(2,6-dimethyl-pyridin-4-yloxy)-3-fluoro-phenyl]-3-trifluoromethyl-1H-pyridin-2-one] showed a melting point of 161.8 °C. The EC50 in series [1] is 75.9 nM.
Compound `Cc1cc(Oc2ccc(-c3ccn(CC4CC4)c(=O)c3Cl)c(F)c2)cc(C)n1` [Compound 32] had a melting point of 148.6 °C. For the same compound, the EC50 in series [1] is 372 nM.
`CCCCn1ccc(-c2ccc(Oc3cc(C)nc(C)c3)cc2F)c(Cl)c1=O` [Compound 10]: the EC50 in series [1] was 200 nM.
`Cc1cc(Oc2ccc(-c3ccn(CC4CC4)c(=O)c3Cl)cc2F)cc(C)n1` [Compound 31] yielded a melting point of 161.6 °C. The EC50 in series [1] was 288 nM.
Regarding `Cc1cc(C)nc(Oc2ccc(-c3ccn(CC4CC4)c(=O)c3Cl)c(F)c2)c1` [Compound 36], in series [1], the EC50 is 891 nM.
Still for that read-out and setting: under `Cc1cc(Oc2ccc(-c3ccn(CCC4CC4)c(=O)c3Cl)cc2)ccn1` [Compound 7] stands 174 nM.
`Cc1ncccc1Oc1ccc(-c2ccn(CC3CC3)c(=O)c2Cl)c(F)c1` [Compound 34] returned a melting point of 120.9 °C. Further, the EC50 in series [1] is > 10000 nM.
`Cc1ccc(Oc2ccc(-c3ccn(CCC(C)C)c(=O)c3Cl)cc2Cl)cn1` [Compound 21] registered a melting point of 96.1 °C. The EC50 in series [1] is 46.8 nM.
As to `CCCCn1ccc(-c2ccc(Oc3cccnc3C)cc2)c(Cl)c1=O` [Compound 25], in series [1], the EC50 is 224 nM.
With `CCCCn1ccc(-c2ccc(Oc3ccnc(C)c3)c(Cl)c2)c(Cl)c1=O` [Compound 18], the EC50 in series [1] is 100 nM.
`Cc1ccc(Oc2ccc(-c3ccn(CC4CC4)c(=O)c3Cl)cc2)c(C)n1` [Compound 14] had a melting point of 151.8 °C. Further, the EC50 in series [1] was 138 nM.
In the case of `Cc1cc(Oc2ccc(-c3ccn(CCC(C)C)c(=O)c3Cl)cc2)ccn1` [Compound 6], in series [1], the EC50 is 170 nM.
`Cc1cc(Oc2ccc(-c3ccn(CC4CC4)c(=O)c3C(F)(F)F)cc2F)ccn1` [Compound 38] had a melting point of 203.9 °C. Moreover, in series [1], the EC50 was 102 nM.
The corresponding values for `Cc1ncccc1Oc1ccc(-c2ccn(CC3CC3)c(=O)c2Cl)cc1` [Compound 24] are 126.2 °C and 437 nM.
With `Cc1cc(Oc2ccc(-c3ccn(CCC4CC4)c(=O)c3Cl)c(F)c2)ccn1` [Compound 26], the EC50 in series [1] was 155 nM.
Compound `Cc1ccc(Oc2ccc(-c3ccn(CC4CC4)c(=O)c3Cl)cc2Cl)cn1` [Compound 20] had a melting point of 111.8 °C. The EC50 in series [1] is 91.2 nM.
Consider `CCCCn1ccc(-c2ccc(Oc3ccnc(C)c3)c(F)c2)c(Cl)c1=O` [Compound 8], for which the EC50 in series [1] is 174 nM.
On the same count and under the same terms, then `CCCCn1ccc(-c2ccc(Oc3ccc(C)nc3C)cc2)c(Cl)c1=O` [Compound 16], with 67.6 nM.
`CCCCn1ccc(-c2ccc(Oc3ccc(C)nc3)c(Cl)c2)c(Cl)c1=O` [Compound 22] had a melting point of 79.7 °C. The EC50 in series [1] was 46.8 nM.
For the compound `Cc1cc(Oc2ccc(-c3ccn(CC4CC4)c(=O)c3Cl)cc2F)ccn1` [Compound 27], the melting point worked out at 176 °C. For the same compound, the EC50 in series [1] was 355 nM.
`Cc1cc(Oc2ccc(-c3ccn(CC4CC4)c(=O)c3Cl)cc2)ccn1` [Compound 13]: the EC50 in series [1] was 513 nM.
As for `CCCCn1ccc(-c2ccc(Oc3cccnc3C)c(Cl)c2)c(Cl)c1=O` [Compound 15], the EC50 in series [1] was 60.3 nM.
On to `CCCCn1ccc(-c2ccc(Oc3ccc(C(C)(C)O)cc3)cc2)c(Cl)c1=O` [Compound 37], for which, in series [1], the EC50 is 39.8 nM.
The compound `Cc1ccc(Oc2ccc(-c3ccn(CC4CC4)c(=O)c3Cl)cc2F)c(C)n1` [Compound 3, 3-Chloro-1-cyclopropylmethyl-4-[4-(2,6-dimethylpyridin-3-yloxy)-3-fluoro-phenyl]-1H-pyridin-2-one] displayed a melting point of 143.4 °C. The EC50 in series [1] is 182 nM.
The corresponding values for `CCCCn1ccc(-c2ccc(Oc3ccc(C(=O)O)cc3)cc2)c(Cl)c1=O` [Compound 4, 4-[4-(1-Butyl-3-chloro-2-oxo-1,2-dihydro-pyridin-4-yl)-phenoxy]-benzoic acid] are 280.3 °C and 138 nM.
`Cc1ncccc1Oc1ccc(-c2ccn(CC3CC3)c(=O)c2Cl)cc1F` [Compound 33]: the EC50 in series [1] is 617 nM.
For the compound `CCCCn1ccc(-c2ccc(Oc3ccc(C)nc3C)cc2F)c(Cl)c1=O` [Compound 35], the EC50 in series [1] is > 10000 nM.
`CCCCn1ccc(-c2ccc(Oc3cc(C)nc(C)c3)c(F)c2)c(Cl)c1=O` [Compound 9]: in series [1], the EC50 is 234 nM.
Consider `CCCCn1ccc(-c2ccc(Oc3ccc(C)nc3C)c(F)c2)c(Cl)c1=O` [Compound 30], for which the EC50 in series [1] is 46.8 nM.
The compound `Cc1cc(Oc2ccc(-c3ccn(CCC(C)C)c(=O)c3Cl)cc2Cl)ccn1` [Compound 19] showed a melting point of 103.8 °C. In addition, in series [1], the EC50 is 67.6 nM.
For `CCCCn1ccc(-c2ccc(Oc3ccnc(C)c3)cc2F)c(Cl)c1=O` [Compound 2, 1-Butyl-3-chloro-4-[2-fluoro-4-(2-methylpyridin-4-yloxy)-phenyl]-1H-pyridin-2-one], in series [1], the EC50 is 282 nM.
For `Cc1ncccc1Oc1ccc(-c2ccn(CC3CC3)c(=O)c2Cl)cc1Cl` [Compound 23], in series [1], the EC50 was 126 nM.
As for `CCCCn1ccc(-c2ccc(Oc3ccnc(C)c3C)c(F)c2)c(Cl)c1=O` [Compound 12], the EC50 in series [1] is 129 nM.
